Test results from patent US20180071317A1, “USE OF AGENTS THAT ALTER THE PERITUMORAL ENVIRONMENT FOR THE TREATMENT OF CANCER” (SERVICIO ANDALUZ DE SALUD, priority 2011, published 2018).

Legend:
polymorphonuclear cells = assay: Marker expression (immunohistochemistry) in polymorphonuclear blood cells with SP alone or with NK1 antagonists; assay type: cell-based, human; conditions: SP 1 μM + antagonist 1 μM; 48 h
Source text: Briefly, heparinized blood from healthy donors was centrifuged so as to separate the various components thereof. Red blood cells remained at the bottom of the tube. Above them was a small white layer composed of the white blood cells and above, on top of the tube, the blood plasma. The layer of white cells was distributed in a culture plate of 24 wells by adding in each the same concentration of blood plasma from the same donor, supplemented with 1% antibiotic-antimycotic (Invitrogen). In each well, approximately 1000 cells (PHF) skin from the dermis were further added, obtained as previously described in Example 2. […] After 48 hours of incubation, cells were collected and embedded in paraffin for expression analysis by immunohistochemical techniques (as described in Example 1).
The expression of TGF molecular markers (anti-TGF 2, SAB4502956) and NF-kB (anti-NF-kB, SAB4501992) using specific antibodies against them were analyzed. All antibodies used were rabbit polyclonal antibodies obtained from Sigma Aldrich and were used at a concentration of 1/1000. All experiments were carried out sixfold.

[1] = test system: fibroblasts (PHF) co-cultured with tumor cells of human gastric adenocarcinoma (23132/87); assay: Marker expression (IHC) in PHF co-cultured with 23132/87 tumor cells; assay type: cell-based; conditions: co-culture with 23132/87; SP 1 μM + antagonist 1 μM; 48 h;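 also: cultures grown in fresh plasma from a healthy human donor, values give the percentage of PHF fibroblasts positive for the marker, each experiment run in six replicates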
Procedure: (§1) All cultures were maintained 48 hours, following which the same cells were included in paraffin blocks for subsequent analysis of the expression of different markers by immunohistochemistry (see Example 1). The primary antibodies used to perform immunohistochemical assays and their concentration are detailed in Example 2. All experiments were carried out sixfold. Analyzed markers in fibroblast cells (stromal cells) were: TGF-α, TGF-β1, TGF-β2, TGF-β3, SPARC, MMP-3, MMP-7, MMP-9, MMP-11, MMP-13 and MMP-14.

[2] = test system: fibroblasts (PHF) co-cultured with tumor cells in human prostate carcinoma (22Rv1); assay: Marker expression (IHC) in PHF co-cultured with 22Rv1 tumor cells; assay type: cell-based; conditions: co-culture with 22Rv1; SP 1 μM + antagonist 1 μM; 48 h;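 also: cultures grown on fresh plasma from a healthy donor, each experiment run sixfold, values give the percentage of fibroblasts positive for the given marker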
Procedure: (§2) All cultures were maintained 48 hours, following which the same cells were included in paraffin blocks for subsequent analysis of the expression of different markers by immunohistochemistry (see Example 1). […] All experiments were carried out sixfold. Analyzed markers in fibroblast cells (stromal cells) were: TGF-α, TGF-β1, TGF-β2, TGF-β3, SPARC, MMP-3, MMP-7, MMP-9, MMP-11, MMP-13 and MMP-14.

[3] = test system: fibroblasts (PHF) co-cultured with human glioma tumor cells (GAMG); assay: Marker expression (IHC) in PHF co-cultured with GAMG tumor cells; assay type: cell-based; conditions: co-culture with GAMG; SP 1 μM + antagonist 1 μM; 48 h;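 also: percentage of PHF fibroblasts positive for each marker, cultured in fresh plasma from a healthy donor, six replicates, with fibroblasts cultured alone as reference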
Procedure: as §2

[4] = test system: fibroblasts (PHF) cells co-cultured with human T lymphoma tumor (DERL-7); assay: Marker expression (IHC) in PHF co-cultured with DERL-7 tumor cells; assay type: cell-based; conditions: PHF co-cultured with DERL-7 + SP + NK1 antagonist
Procedure: as §1

[5] = test system: co-cultures of tumor cells-endothelial cells (C-12210); assay: Inhibition/survival in co-cultures of primary human tumor cells and endothelial cells; assay type: cell-based; conditions: survival in reference to control, SP 1 μM, Vestipitant 1 μM
Procedure: To check that the interaction of primary tumor cells extracted directly from human with human vascular endothelial cells, promotes the survival of both cell types, co-cultures were performed microvascular endothelial cells from juvenile foreskins (PromoCell GmbH, Sickingenstraβe 63/65, D-69126 Heidelberg, Germany; reference C-12210) with tumor cells obtained directly from primary human tumors.
A total of 6 wells containing tumor cells were used as control for survival. Another 6 wells containing tumor cells were cultured with addition of endothelial cells.
Subsequently, cells were embedded in paraffin for analysis by immunohistochemistry. In order to identify the different cell types and quantity of them [They were labelled with primary antibodies specific for human endothelial cells (anti-CD31), carcinoma cells (Anti-Cytokeratins Spread Spectrum), glioma (Anti-glial fibrillary acidic protein), fibrosarcoma and malignant fibrous histiocytoma (Anti-Smooth Muscle Actin), Ewing sarcoma (Anti-CD99), Melanoma (Anti-HMB45), leukemias and lymphomas (Anti-Common Antigen Leucitario) and myeloma (anti CD 138). All antibodies are distributed by Dako and were used at the same concentration which is supplied (supplied pre-diluted—“ready to use”).

[6] = test system: fibroblast cells in co-culture with cells isolated from primary human tumors; assay: Marker expression (IHC) in fibroblasts co-cultured with primary human tumor cells (colon, pancreatic, lung carcinoma, glioma, multiple myeloma); assay type: cell-based
Procedure: To check that the interaction of the human primary tumor cells with stromal cells, [human fibroblasts,] stimulates the secretion of substances of importance for survival and tumor progression, co-cultures were performed using stromal cells with human fibroblast-tumor cells obtained directly from primary human tumors.
On this occasion, in order to identify, using immunohistochemical techniques, the secretion of substances of importance for the survival and progression of tumors, the following antibodies were used: TGF-α (SAB4502953), TGF-β1 (SAB4502954), TGF-β2 (SAB4502956), TGF-β3 (SAB4502957), SPARC (HPA002989), MMP-3 (HPA007875), MMP-7 (SAB4501894), MMP-9 (SAB4501896), MMP-11 (SAB4501898) MMP-13 (SAB4501900) and MMP-14 (SAB4501901) using specific antibodies against them. All antibodies used were rabbit polyclonal antibodies obtained from Sigma-Aldrich and were used at a concentration of 1/1000 to achieve these immunohistochemical studies. All experiments were carried out sixfold.

[7] = Carcinoma of lung, (Small cell carcinoma in Table 36)
[8] = Carcinoma of lung, Non Small Cell Carcinoma in Table 36
[9] = Carcinoma of thyroid, (Follicular Carcinoma in Table 36)
[10] = Carcinoma of thyroid, (Papillary Carcinoma in Table 36)
[11] = Primary tumor cells (colon carcinoma) co-cultured + fibroblast + SP (1 μM) + NK1 antagonist 1 μM
[12] = co-culture with cells isolated from glioma, SP 1 μM + antagonist 1 μM
[13] = co-culture with cells isolated from lung cancer, SP 1 μM + antagonist 1 μM
[14] = co-culture with cells isolated from multiple myeloma, SP 1 μM + antagonist 1 μM
[15] = co-culture with cells isolated from pancreatic carcinoma, SP 1 μM + antagonist 1 μM

In the case of Cc1cc(F)ccc1[C@H]1CNCCN1C(=O)N(C)[C@H](C)c1cc(C(F)(F)F)cc(C(F)(F)F)c1 [Vestipitant], the “polymorphonuclear cells expressing NF-kB” value (polymorphonuclear cells) is reported as 0%, the “polymorphonuclear cells expressing TGF-β” value (polymorphonuclear cells) is reported as 0% and the “PHF cells expressing MMP-3” value [1] is reported as 0%. The “PHF cells expressing MMP-7” value [1] was 0%, the “PHF cells expressing MMP-9” value [1] was 0% and the “PHF cells expressing MMP-11” value [1] was 0%. The “PHF cells expressing MMP-13” value [1] was 0%, the “PHF cells expressing MMP-14” value [1] was 0% and the “PHF cells expressing SPARC” value [1] was 0%. For the same compound, the “PHF cells expressing TGF-α” value [1] was 0%, the “PHF cells expressing TGF-β1” value [1] was 0% and the “PHF cells expressing TGF-β2” value [1] was 0%. For the same compound, the “PHF cells expressing TGF-β3” value [1] was 0%, the “PHF cells expressing MMP-3” value [2] was 0% and the “PHF cells expressing MMP-7” value [2] was 0%. The “PHF cells expressing MMP-9” value [2] was 0%, the “PHF cells expressing MMP-11” value [2] was 0% and the “PHF cells expressing MMP-13” value [2] was 0%. The “PHF cells expressing MMP-14” value [2] was 0%, the “PHF cells expressing SPARC” value [2] was 0% and the “PHF cells expressing TGF-α” value [2] was 0%. For the same compound, the “PHF cells expressing TGF-β1” value [2] was 0%, the “PHF cells expressing TGF-β2” value [2] was 0% and the “PHF cells expressing TGF-β3” value [2] was 0%. The “PHF cells expressing MMP-3” value [3] was 0%, the “PHF cells expressing MMP-7” value [3] was 0% and the “PHF cells expressing MMP-9” value [3] was 0%. The “PHF cells expressing MMP-11” value [3] was 0%, the “PHF cells expressing MMP-13” value [3] was 0% and the “PHF cells expressing MMP-14” value [3] was 0%. For the same compound, the “PHF cells expressing SPARC” value [3] was 0%, the “PHF cells expressing TGF-α” value [3] was 0% and the “PHF cells expressing TGF-β1” value [3] was 0%. The “PHF cells expressing TGF-β2” value [3] was 0%, the “PHF cells expressing TGF-β3” value [3] was 0% and the “cells expressing MMP-3” value [4] was 0%. The “cells expressing MMP-7” value [4] was 0%, the “cells expressing MMP-9” value [4] was 0% and the “cells expressing MMP-11” value [4] was 0%. The “cells expressing MMP-13” value [4] was 0%, the “cells expressing MMP-14” value [4] was 0% and the “cells expressing SPARC” value [4] was 0%. For the same compound, the “cells expressing TGF-α” value [4] was 0%, the “cells expressing TGF-β1” value [4] was 0% and the “cells expressing TGF-β2” value [4] was 0%. For the same compound, the “cells expressing TGF-β3” value [4] was 0%, the “Endothelial cells co-cultured with tumor cells + SP + Vestipitant” value (shortened to “Endothelial cells co-cultured”) ([5]; Carcinoma of Colon) was 54 ± 3% and the “Tumor cells co-cultured with endothelial cells + SP + Vestipitant” value (“Tumor cells co-cultured” for short) ([5]; Carcinoma of Colon) was 65 ± 6%. The “Endothelial cells co-cultured” value ([5]; Carcinoma of Pancreas) was 55 ± 3%, the “Tumor cells co-cultured” value ([5]; Carcinoma of Pancreas) was 47 ± 5% and the “Endothelial cells co-cultured” value ([5]; Carcinoma of breast) was 55 ± 4%. The “Tumor cells co-cultured” value ([5]; Carcinoma of breast) was 55 ± 5%, the “Endothelial cells co-cultured” value ([5]; Carcinoma of cervix) was 47 ± 4% and the “Tumor cells co-cultured” value ([5]; Carcinoma of cervix) was 47 ± 4%. For the same compound, the “Endothelial cells co-cultured” value ([5]; Carcinoma of endometrial) was 56 ± 5%, the “Tumor cells co-cultured” value ([5]; Carcinoma of endometrial) was 47 ± 6% and the “Endothelial cells co-cultured” value [5, 7] was 45 ± 6%. The “Tumor cells co-cultured” value [5, 7] was 67 ± 5%, the “Endothelial cells co-cultured” value [5, 8] was 45 ± 3% and the “Tumor cells co-cultured” value [5, 8] was 64 ± 6%. For the same compound, the “Endothelial cells co-cultured” value ([5]; Carcinoma of ovarian) was 44 ± 4%, the “Tumor cells co-cultured” value ([5]; Carcinoma of ovarian) was 57 ± 6% and the “Endothelial cells co-cultured” value ([5]; Carcinoma of prostate) was 51 ± 6%. For the same compound, the “Tumor cells co-cultured” value ([5]; Carcinoma of prostate) was 48 ± 6%, the “Endothelial cells co-cultured” value ([5]; Carcinoma of stomach) was 62 ± 3% and the “Tumor cells co-cultured” value ([5]; Carcinoma of stomach) was 56 ± 4%. For the same compound, the “Endothelial cells co-cultured” value [5, 9] was 46 ± 4%, the “Tumor cells co-cultured” value [5, 9] was 47 ± 5% and the “Endothelial cells co-cultured” value [5, 10] was 52 ± 5%. The “Tumor cells co-cultured” value [5, 10] was 55 ± 6%, the “Endothelial cells co-cultured” value ([5]; Fibrosarcoma) was 46 ± 7% and the “Tumor cells co-cultured” value ([5]; Fibrosarcoma) was 56 ± 7%. For the same compound, the “Endothelial cells co-cultured” value ([5]; Glioma) was 54 ± 3%, the “Tumor cells co-cultured” value ([5]; Glioma) was 47 ± 5% and the “Endothelial cells co-cultured” value ([5]; Hodgkin's Lymphoma) was 47 ± 5%. The “Tumor cells co-cultured” value ([5]; Hodgkin's Lymphoma) was 76 ± 5%, the “Endothelial cells co-cultured” value ([5]; Leukemia B) was 47 ± 4% and the “Tumor cells co-cultured” value ([5]; Leukemia B) was 53 ± 5%. For the same compound, the “Endothelial cells co-cultured” value ([5]; Leukemia T) was 57 ± 4%, the “Tumor cells co-cultured” value ([5]; Leukemia T) was 56 ± 4% and the “Endothelial cells co-cultured” value ([5]; Malignant fibrous histiocytoma) was 53 ± 4%. The “Tumor cells co-cultured” value ([5]; Malignant fibrous histiocytoma) was 46 ± 7%, the “Endothelial cells co-cultured” value ([5]; Melanoma) was 55 ± 5% and the “Tumor cells co-cultured” value ([5]; Melanoma) was 44 ± 4%. The “Endothelial cells co-cultured” value ([5]; Myeloma) was 56 ± 7%, the “Tumor cells co-cultured” value ([5]; Myeloma) was 66 ± 3% and the “Endothelial cells co-cultured” value ([5]; Neuroblastoma) was 46 ± 3%. For the same compound, the “Tumor cells co-cultured” value ([5]; Neuroblastoma) was 56 ± 4%, the “Endothelial cells co-cultured” value ([5]; Non-Hodgkin's Lymphoma B) was 65 ± 4% and the “Tumor cells co-cultured” value ([5]; Non-Hodgkin's Lymphoma B) was 43 ± 5%. For the same compound, the “Endothelial cells co-cultured” value ([5]; Non-Hodgkin's Lymphoma T) was 48 ± 6%, the “Tumor cells co-cultured” value ([5]; Non-Hodgkin's Lymphoma T) was 81 ± 5% and the “Endothelial cells co-cultured” value ([5]; Renal carcinoma) was 54 ± 3%. For the same compound, the “Tumor cells co-cultured” value ([5]; Renal carcinoma) was 54 ± 4%, the “Endothelial cells co-cultured” value ([5]; Sarcoma of Ewing) was 46 ± 4% and the “Tumor cells co-cultured” value ([5]; Sarcoma of Ewing) was 47 ± 6%. For the same compound, the “Percentage of fibroblast cells which expressed MMP-3” value (from here on “Percentage … expressed MMP-3”) [6, 11] was 0%, the “Percentage of fibroblast cells which expressed MMP-7” value (shortened to “Percentage … expressed MMP-7”) [6, 11] was 0% and the “Percentage of fibroblast cells which expressed MMP-9” value (“Percentage … expressed MMP-9” below) [6, 11] was 0%. The “Percentage of fibroblast cells which expressed MMP-11” value (from here on “Percentage … expressed MMP-11”) [6, 11] was 0%, the “Percentage of fibroblast cells which expressed MMP-13” value (“Percentage … expressed MMP-13” below) [6, 11] was 0% and the “Percentage of fibroblast cells which expressed MMP-14” value (shortened to “Percentage … expressed MMP-14”) [6, 11] was 0%. The “Percentage of fibroblast cells which expressed SPARC” value (“Percentage … expressed SPARC” for short) [6, 11] was 0%, the “Percentage of fibroblast cells which expressed TGFα” value (shortened to “Percentage … expressed TGFα”) [6, 11] was 0% and the “Percentage of fibroblast cells which expressed TGFβ1” value (shortened to “Percentage … expressed TGFβ1”) [6, 11] was 0%. For the same compound, the “Percentage of fibroblast cells which expressed TGFβ2” value (“Percentage … expressed TGFβ2” below) [6, 11] was 0%, the “Percentage of fibroblast cells which expressed TGFβ3” value (from here on “Percentage … expressed TGFβ3”) [6, 11] was 0% and the “Percentage … expressed MMP-3” value [6, 12] was 0%. For the same compound, the “Percentage … expressed MMP-7” value [6, 12] was 0%, the “Percentage … expressed MMP-9” value [6, 12] was 0% and the “Percentage … expressed MMP-11” value [6, 12] was 0%. For the same compound, the “Percentage … expressed MMP-13” value [6, 12] was 0%, the “Percentage … expressed MMP-14” value [6, 12] was 0% and the “Percentage … expressed SPARC” value [6, 12] was 0%. The “Percentage … expressed TGFα” value [6, 12] was 0%, the “Percentage … expressed TGFβ1” value [6, 12] was 0% and the “Percentage … expressed TGFβ2” value [6, 12] was 0%. For the same compound, the “Percentage … expressed TGFβ3” value [6, 12] was 0%, the “Percentage … expressed MMP-3” value [6, 13] was 0% and the “Percentage … expressed MMP-7” value [6, 13] was 0%. For the same compound, the “Percentage … expressed MMP-9” value [6, 13] was 0%, the “Percentage … expressed MMP-11” value [6, 13] was 0% and the “Percentage … expressed MMP-13” value [6, 13] was 0%. The “Percentage … expressed MMP-14” value [6, 13] was 0%, the “Percentage … expressed SPARC” value [6, 13] was 0% and the “Percentage … expressed TGFα” value [6, 13] was 0%. The “Percentage … expressed TGFβ1” value [6, 13] was 0%, the “Percentage … expressed TGFβ2” value [6, 13] was 0% and the “Percentage … expressed TGFβ3” value [6, 13] was 0%. For the same compound, the “Percentage … expressed MMP-3” value [6, 14] was 0%, the “Percentage … expressed MMP-7” value [6, 14] was 0% and the “Percentage … expressed MMP-9” value [6, 14] was 0%. For the same compound, the “Percentage … expressed MMP-11” value [6, 14] was 0%, the “Percentage … expressed MMP-13” value [6, 14] was 0% and the “Percentage … expressed MMP-14” value [6, 14] was 0%. For the same compound, the “Percentage … expressed SPARC” value [6, 14] was 0%, the “Percentage … expressed TGFα” value [6, 14] was 0% and the “Percentage … expressed TGFβ1” value [6, 14] was 0%. The “Percentage … expressed TGFβ2” value [6, 14] was 0%, the “Percentage … expressed TGFβ3” value [6, 14] was 0% and the “Percentage … expressed MMP-3” value [6, 15] was 0%. For the same compound, the “Percentage … expressed MMP-7” value [6, 15] was 0%, the “Percentage … expressed MMP-9” value [6, 15] was 0% and the “Percentage … expressed MMP-11” value [6, 15] was 0%. For the same compound, the “Percentage … expressed MMP-13” value [6, 15] was 0%, the “Percentage … expressed MMP-14” value [6, 15] was 0% and the “Percentage … expressed SPARC” value [6, 15] was 0%. For the same compound, the “Percentage … expressed TGFα” value [6, 15] was 0%, the “Percentage … expressed TGFβ1” value [6, 15] was 0% and the “Percentage … expressed TGFβ2” value [6, 15] was 0%. The “Percentage … expressed TGFβ3” value [6, 15] was 0%.
